# Data reported in patent US12023387B2, “NIR-II emissive luminogens” (THE HONG KONG UNIVERSTIY OF SCIENCE AND TECHNOLOGY, priority 2018, dated 2024).
# Experiments:
# [1] = UV-vis absorption spectrum in THF solution; assay type: physicochemical; conditions: THE (THF) solution, 10 μM
# [2] = AIE property: photoluminescence in THF/water mixtures with varying water fraction; assay type: physicochemical
# Description: FIG. 4 depicts (A) an image of TSPCI powder in daylight; (B) the UV-vis absorption spectrum of TSPCI; (C) the photoluminescence (PL) spectra of TSPCI in THF and THF/water mixtures with different water fractions (fw); and (D) the plot of relative PL intensities at 950 nm versus the fw (concentration: 10 μM; excitation wavelength: 808 nm).
# The AIE property of TSPCI was investigated by varying the water fractions (fw) in tetrahydrofuran (THF)/water mixtures (FIG. 4C). […] The strongest emission intensity at ˜950 nm reached its maximum value at 90 vol % water content, which was ˜35-fold higher than that in the pure THF due to the restriction of intramolecular rotation ([…]).
# [3] = system: nude mouse; experiment: In vivo dynamic NIR-II fluorescence imaging after intravenous injection; conditions: i.v. injection of TSPCI solution in water, images 1-5 s after injection, 808 nm excitation, 1000 nm long-pass filter
# Description: NIR-I fluorescence imaging was performed using the Maestro in vivo imaging system (CRI, Inc.). To acquire fluorescence of an NIR-I AIEgen (TTD), a 605 nm (+25 nm) bandpass filter and a 645 nm longpass filter were selected as the excitation filter and the emission filter, respectively. NIR-II imaging was performed using the home-built NIR-II in vivo imaging system. The excitation light was provided by an 808 nm diode laser. The emitted light from the TSPCI was filtered through a 1000 nm long-pass filter, which was coupled with a two-dimensional InGaAs array camera (with spectral response range of 900-1700 nm, Photonic Science) for NIR-II fluorescence signal collection. The excitation power density at the imaging plane was 6.4 mW/cm^2, much lower than the safe exposure limit of 330 mW/cm^2 at 808 nm determined by the International Commission on Nonionizing Radiation Protection. […]
# TSPCI was added to water under sonication to provide a TSPCI solution. […] FIG. 7A depicts an NIR-II fluorescence image of the nude mouse before intravenous injection of TSPCI solution. FIG. 7B depicts an NIR-II fluorescence image of the nude mouse one second after injection of TSPCI solution. FIG. 7C depicts an NIR-II fluorescence image of the nude mouse two seconds after injection of TSPCI solution. FIG. 7D depicts an NIR-II fluorescence image of the nude mouse three seconds after injection of TSPCI solution. […]
compound,measurement,setting,value
N#CC(C#N)=C1C(=C2C=C(/C=C/c3ccc(N(c4ccccc4)c4ccccc4)cc3)OC(/C=C/c3ccc(N(c4ccccc4)c4ccccc4)cc3)=C2)C(=C(C#N)C#N)c2ccccc21 [TSPCI],maximal absorption wavelength,[1],682 nm
same,wavelength of strongest emission intensity,"[2]; THF/water mixtures, excitation 808 nm",~950 nm
same,emission spectrum range in aggregate state,"[2]; aggregate state, bright emission, NIR-II",1000-1700 nm
same,emission intensity enhancement versus pure THF,"[2]; at ~950 nm, 90 vol % water content in THF/water, 10 μM, excitation 808 nm",~35 fold
same,emission in pure THF solution,[2]; pure THF (fw=0),no emission was observed
same,in vivo NIR-II imaging performance,[3],high contrast and penetration depth
